According to patent US20240025906A1 (NEURON23, INC., priority 2022, published 2024):

Assays:
[1] = target: T1, TYK2 JH2 (Homo sapiens, UniProt P29597); assay: TYK2 JH2 binding assay (KINOMEscan KdELECT competitive binding); settings: TYK2 JH2 domain, KINOMEscan KdELECT (Assay A); read-out: Biochemical TYK2_DiscoverX_JH2_BND_Kd
T1 construct: purchased DiscoverX (KINOMEscan KdELECT service); host or cells: E. coli BL21-derived (T7 phage display) or HEK-293
Method in brief: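 The assay measures displacement of DNA- or phage-tagged TYK2 pseudokinase domain from an affinity resin; compound binding lowers the amount captured, read by qPCR. Incubation lasts 1 h at room temperature.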

[2] = test system: JAK1/TYK2 pSTAT5 (Tyr694/699) in THP-1 cell line; assay: IFNa-stimulated JAK1/TYK2 pSTAT5 (Tyr694/699) inhibition cellular assay, AlphaLISA; format: cell-based; settings: Homo sapiens; THP-1 cells, IFNa-stimulated, AlphaLISA (Assay B); read-out: Cellular_THP1_IFNa-pSTATS_TYK2
Method in brief: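 pSTAT5 (Tyr694/699) in lysates quantified by AlphaLISA (615 nm) after 30 min IFNa stimulation (100 ng/mL stock) of THP-1 cells. The cells, 2e4 per well in HBSS, had first been exposed 1 h at 37° C. to eight 6-fold compound dilutions, 10000 down to 0.04 nM final. IC50 fitted by 4PL regression, bottom 0, Hill slope −1.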

T1 sequence (P29597 589-875 limits assumed): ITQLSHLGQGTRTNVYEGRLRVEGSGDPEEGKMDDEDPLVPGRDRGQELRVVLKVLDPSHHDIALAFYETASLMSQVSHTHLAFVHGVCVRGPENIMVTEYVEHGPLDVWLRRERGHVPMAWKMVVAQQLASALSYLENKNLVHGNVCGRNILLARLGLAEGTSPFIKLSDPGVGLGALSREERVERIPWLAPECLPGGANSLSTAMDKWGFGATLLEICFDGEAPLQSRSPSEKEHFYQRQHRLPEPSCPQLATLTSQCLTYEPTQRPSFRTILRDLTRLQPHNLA

Row | Kd [1] [µM] | IC50 [2] [µM] | SMILES
1 | ≤ 0.1 | ≤ 0.5 | CNc1ncc(C#Cc2ccc(Oc3ncn(C)n3)cc2)c2cc(NC(=O)C3CC3)ncc12 [Example 711, N-(5-((4-((1-methyl-1H-1,2,4-triazol-3-yl)oxy)phenyl)ethynyl)-8-(methylamino)-2,7-naphthyridin-3-yl)cyclopropanecarboxamide]
2 | ≤ 0.1 | ≤ 0.5 | CNc1ncc(C#Cc2ccc(OCC3CN(C)C3)cc2)c2cc(NC(=O)C3CC3)ncc12 [Example 712, N-(8-(methylamino)-5-((4-((1-methylazetidin-3-yl)methoxy)phenyl)ethynyl)-2,7-naphthyridin-3-yl)cyclopropanecarboxamide]
3 | ≤ 0.1 | ≤ 0.5 | CNc1ncc(C#Cc2ccc(OC(C)CC3COC3)cc2)c2cc(NC(=O)C3CC3)ncc12 (centres unmarked) [Example 713, N-(8-(methylamino)-5-((4-((1-(oxetan-3-yl)propan-2-yl)oxy)phenyl)ethynyl)-2,7-naphthyridin-3-yl)cyclopropanecarboxamide]
4 | ≤ 0.1 | ≤ 0.5 | CNc1ncc(C#Cc2ccc(OCC(C)(C)O)cc2)c2cc(NC(=O)C3CC3)ncc12 [Example 714, N-(5-((4-(2-hydroxy-2-methylpropoxy)phenyl)ethynyl)-8-(methylamino)-2,7-naphthyridin-3-yl)cyclopropanecarboxamide]
5 | ≤ 0.1 | ≤ 0.5 | CNc1ncc(C#Cc2ccc(OC3CN(S(C)(=O)=O)C3)cc2)c2cc(NC(=O)C3CC3)ncc12 [Example 715, N-(8-(methylamino)-5-((4-((1-(methylsulfonyl)azetidin-3-yl)oxy)phenyl)ethynyl)-2,7-naphthyridin-3-yl)cyclopropanecarboxamide]
6 | ≤ 0.1 | ≤ 0.5 | CNc1ncc(C#Cc2ccc3cc(COC)n(C)c3c2)c2cc(NC(=O)C3CC3)ncc12 [Example 716, N-(5-((2-(methoxymethyl)-1-methyl-1H-indol-6-yl)ethynyl)-8-(methylamino)-2,7-naphthyridin-3-yl)cyclopropanecarboxamide]
7 | ≤ 0.1 | ≤ 0.5 | CNc1ncc(C#Cc2ccc3oc(COC)cc3c2)c2cc(NC(=O)C3CC3)ncc12 [Example 717, N-(5-((2-(methoxymethyl)benzofuran-5-yl)ethynyl)-8-(methylamino)-2,7-naphthyridin-3-yl)cyclopropanecarboxamide]
8 | ≤ 0.1 | ≤ 0.5 | CNc1ncc(C#Cc2cc(F)c(OC)cn2)c2cc(NC(=O)C3CC3)ncc12 [Example 718, N-(5-((4-fluoro-5-methoxypyridin-2-yl)ethynyl)-8-(methylamino)-2,7-naphthyridin-3-yl)cyclopropanecarboxamide]
9 | ≤ 0.1 | ≤ 0.5 | CNc1ncc(C#Cc2ccc3nc(OC)n(C)c3c2)c2cc(NC(=O)C3CC3)ncc12 [Example 719, N-(5-((2-methoxy-1-methyl-1H-benzo[d]imidazol-6-yl)ethynyl)-8-(methylamino)-2,7-naphthyridin-3-yl)cyclopropanecarboxamide]
10 | ≤ 0.1 | ≤ 0.5 | CNc1ncc(C#Cc2ccc3nc4n(c3c2)CCOC4)c2cc(NC(=O)C3CC3)ncc12 [Example 720, N-(5-((3,4-dihydro-1H-benzo[4,5]imidazo[2,1-c][1,4]oxazin-7-yl)ethynyl)-8-(methylamino)-2,7-naphthyridin-3-yl)cyclopropanecarboxamide]
11 | ≤ 0.1 | ≤ 0.5 | CNc1ncc(C#Cc2cc3c(F)cccn3n2)c2cc(NC(=O)C3CC3)ncc12 [Example 721, N-(5-((4-fluoropyrazolo[1,5-a]pyridin-2-yl)ethynyl)-8-(methylamino)-2,7-naphthyridin-3-yl)cyclopropanecarboxamide]
12 | ≤ 0.1 | ≤ 0.5 | [2H]C([2H])([2H])Oc1ccc(C#Cc2cnc(NC)c3cnc(NC(=O)C4CC4)cc23)nc1 [Example 722, N-(5-((5-(methoxy-d3)pyridin-2-yl)ethynyl)-8-(methylamino)-2,7-naphthyridin-3-yl)cyclopropanecarboxamide]
13 | ≤ 0.1 | ≤ 0.5 | CNc1ncc(C#Cc2ccc3c(cnn3C(F)F)c2)c2cc(NC(=O)C3CC3)ncc12 [Example 723, N-(5-((1-(difluoromethyl)-1H-indazol-5-yl)ethynyl)-8-(methylamino)-2,7-naphthyridin-3-yl)cyclopropanecarboxamide]
14 | ≤ 0.1 | ≤ 0.5 | CNc1ncc(C#Cc2ccncc2CCO)c2cc(NC(=O)C3CC3)ncc12 [Example 724, N-(5-((3-(2-hydroxyethyl)pyridin-4-yl)ethynyl)-8-(methylamino)-2,7-naphthyridin-3-yl)cyclopropanecarboxamide]
15 | ≤ 0.1 | ≤ 0.5 | CNc1ncc(C#Cc2ccc3nc(COC)sc3c2)c2cc(NC(=O)C3CC3)ncc12 [Example 725, N-(5-((2-(methoxymethyl)benzo[d]thiazol-6-yl)ethynyl)-8-(methylamino)-2,7-naphthyridin-3-yl)cyclopropanecarboxamide]
16 | ≤ 0.1 | ≤ 0.5 | CNc1ncc(C#Cc2ccc(N3CCC3)cn2)c2cc(NC(=O)C3CC3)ncc12 [Example 726, N-(5-((5-(azetidin-1-yl)pyridin-2-yl)ethynyl)-8-(methylamino)-2,7-naphthyridin-3-yl)cyclopropanecarboxamide]
17 | ≤ 0.1 | ≤ 0.5 | CNc1ncc(C#Cc2ccc(N3CCC3COC)cn2)c2cc(NC(=O)C3CC3)ncc12 (centres unmarked) [Example 727, N-(5-((5-(2-(methoxymethyl)azetidin-1-yl)pyridin-2-yl)ethynyl)-8-(methylamino)-2,7-naphthyridin-3-yl)cyclopropanecarboxamide]
18 | ≤ 0.1 | ≤ 0.5 | CNc1ncc(C#Cc2ccc(CN3CCOCC3)cn2)c2cc(NC(=O)C3CC3)ncc12 [Example 728, N-(8-(methylamino)-5-((5-(morpholinomethyl)pyridin-2-yl)ethynyl)-2,7-naphthyridin-3-yl)cyclopropanecarboxamide]
19 | ≤ 0.1 | ≤ 0.5 | CNc1ncc(C#Cc2ccc(C(C)(F)F)cn2)c2cc(NC(=O)C3CC3)ncc12 [Example 729, N-(5-((5-(1,1-difluoroethyl)pyridin-2-yl)ethynyl)-8-(methylamino)-2,7-naphthyridin-3-yl)cyclopropanecarboxamide]
20 | ≤ 0.1 | > 0.5 | CNc1ncc(C#Cc2cc(C#N)c(OC)cn2)c2cc(NC(=O)C3CC3)ncc12 [Example 730, N-(5-((4-cyano-5-methoxypyridin-2-yl)ethynyl)-8-(methylamino)-2,7-naphthyridin-3-yl)cyclopropanecarboxamide]
21 | ≤ 0.1 | > 0.5 | CNc1ncc(C#Cc2ccc(OCC(C)(C)F)cc2)c2cc(NC(=O)C3CC3)ncc12 [Example 731, N-(5-((4-(2-fluoro-2-methylpropoxy)phenyl)ethynyl)-8-(methylamino)-2,7-naphthyridin-3-yl)cyclopropanecarboxamide]
22 | ≤ 0.1 | ≤ 0.5 | CNc1ncc(C#Cc2ccc(OCF)cn2)c2cc(NC(=O)C3CC3)ncc12 [Example 732, N-(5-((5-(fluoromethoxy)pyridin-2-yl)ethynyl)-8-(methylamino)-2,7-naphthyridin-3-yl)cyclopropanecarboxamide]
23 | ≤ 0.1 | ≤ 0.5 | CNc1ncc(C#Cc2ccc(N3CC4CN(C)CC(C3)O4)cn2)c2cc(NC(=O)C3CC3)ncc12 [Example 733, N-(5-((5-(7-methyl-9-oxa-3,7-diazabicyclo[3.3.1]nonan-3-yl)pyridin-2-yl)ethynyl)-8-(methylamino)-2,7-naphthyridin-3-yl)cyclopropanecarboxamide]
24 | ≤ 0.1 | ≤ 0.5 | CNc1ncc(C#Cc2ccc(N3CC4CN(C)CC(C3)O4)cc2)c2cc(NC(=O)C3CC3)ncc12 [Example 734, N-(5-((4-(7-methyl-9-oxa-3,7-diazabicyclo[3.3.1]nonan-3-yl)phenyl)ethynyl)-8-(methylamino)-2,7-naphthyridin-3-yl)cyclopropanecarboxamide]
25 | ≤ 0.1 | ≤ 0.5 | CNc1ncc(C#Cc2ccc(OC3CN(C(C)=O)C3)cn2)c2cc(NC(=O)C3CC3)ncc12 [Example 735, N-(5-((5-((1-acetylazetidin-3-yl)oxy)pyridin-2-yl)ethynyl)-8-(methylamino)-2,7-naphthyridin-3-yl)cyclopropanecarboxamide]
26 | ≤ 0.1 | ≤ 0.5 | CNc1ncc(C#Cc2ccc(OC3CN(C(C)=O)C3)cn2)c2cc(NC(=O)C3(F)CC3)ncc12 [Example 736, N-(5-((5-((1-acetylazetidin-3-yl)oxy)pyridin-2-yl)ethynyl)-8-(methylamino)-2,7-naphthyridin-3-yl)-1-fluorocyclopropane-1-carboxamide]
27 | ≤ 0.1 | ≤ 0.5 | CNc1ncc(C#Cc2ccc(NC(=O)COC)cc2)c2cc(NC(=O)C3CC3)ncc12 [Example 737, N-(5-((4-(2-methoxyacetamido)phenyl)ethynyl)-8-(methylamino)-2,7-naphthyridin-3-yl)cyclopropanecarboxamide]
28 | ≤ 0.1 | ≤ 0.5 | CNc1ncc(C#Cc2ccc(P(C)(C)=O)cn2)c2cc(NC(=O)C3CC3)ncc12 [Example 738, N-(5-((5-(dimethylphosphoryl)pyridin-2-yl)ethynyl)-8-(methylamino)-2,7-naphthyridin-3-yl)cyclopropanecarboxamide]
